Laboratory results published in patent US6849653B2, “Substituted pyrazolyl benzenesulfamide compounds for the treatment of inflammation” (Pharmacia Corporation, priority 2001, dated 2005).

target: T1, rhIKK1/IKK2 heterodimer (Homo sapiens, UniProt O14920+O15111); test: IKK Heterodimer Resin Enzyme Assay; format: biochemical; settings: not given
T1 construct: made in house; host or cells: insect cells (baculovirus coinfection; SF9)
T1 sequence (O14920 1-756): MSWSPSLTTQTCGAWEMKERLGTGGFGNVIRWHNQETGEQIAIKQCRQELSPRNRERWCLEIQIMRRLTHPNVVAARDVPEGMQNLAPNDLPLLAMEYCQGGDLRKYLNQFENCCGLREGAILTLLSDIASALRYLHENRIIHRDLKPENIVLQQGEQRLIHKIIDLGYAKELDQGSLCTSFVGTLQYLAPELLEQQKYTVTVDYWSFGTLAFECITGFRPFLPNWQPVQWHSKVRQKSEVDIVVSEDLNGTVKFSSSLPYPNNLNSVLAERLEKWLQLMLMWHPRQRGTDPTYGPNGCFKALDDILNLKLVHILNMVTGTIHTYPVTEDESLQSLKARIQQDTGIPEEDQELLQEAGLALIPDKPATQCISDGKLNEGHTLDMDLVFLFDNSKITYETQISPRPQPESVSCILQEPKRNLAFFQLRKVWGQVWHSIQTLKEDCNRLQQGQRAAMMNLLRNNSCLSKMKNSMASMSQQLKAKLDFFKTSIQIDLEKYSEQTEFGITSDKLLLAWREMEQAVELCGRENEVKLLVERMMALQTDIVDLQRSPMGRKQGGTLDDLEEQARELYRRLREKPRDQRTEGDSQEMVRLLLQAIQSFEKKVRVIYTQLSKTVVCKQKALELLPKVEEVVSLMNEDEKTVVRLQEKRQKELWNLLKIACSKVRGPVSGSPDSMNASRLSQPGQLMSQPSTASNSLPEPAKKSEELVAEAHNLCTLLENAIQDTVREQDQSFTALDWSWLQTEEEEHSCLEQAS
T1 sequence (O15111 1-745): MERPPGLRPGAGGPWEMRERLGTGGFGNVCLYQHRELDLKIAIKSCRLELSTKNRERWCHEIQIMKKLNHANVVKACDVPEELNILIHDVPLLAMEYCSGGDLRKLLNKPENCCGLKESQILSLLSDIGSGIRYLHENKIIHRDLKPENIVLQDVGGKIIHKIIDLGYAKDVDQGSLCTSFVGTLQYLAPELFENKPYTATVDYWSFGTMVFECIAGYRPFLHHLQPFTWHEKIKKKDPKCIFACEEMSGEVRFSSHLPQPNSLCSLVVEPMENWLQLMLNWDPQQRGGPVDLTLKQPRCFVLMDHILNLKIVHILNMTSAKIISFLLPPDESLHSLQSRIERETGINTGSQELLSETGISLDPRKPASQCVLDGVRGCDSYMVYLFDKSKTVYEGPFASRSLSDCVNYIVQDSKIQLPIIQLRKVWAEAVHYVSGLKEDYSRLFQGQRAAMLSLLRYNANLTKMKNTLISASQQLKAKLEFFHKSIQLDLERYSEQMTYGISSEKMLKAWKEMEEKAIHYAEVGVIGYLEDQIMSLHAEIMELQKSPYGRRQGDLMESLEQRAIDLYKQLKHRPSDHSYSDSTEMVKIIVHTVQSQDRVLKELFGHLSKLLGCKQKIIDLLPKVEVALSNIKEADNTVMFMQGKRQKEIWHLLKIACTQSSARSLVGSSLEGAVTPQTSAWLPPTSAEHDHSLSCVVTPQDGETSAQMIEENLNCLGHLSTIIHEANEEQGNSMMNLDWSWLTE
Text: cDNAs of human IKK1 and IKK2 were amplified by reverse transcriptase-polymerase chain reaction from human placental RNA (Clonetech). hIKK1 was subcloned into pFastBac HTa (Life Technologies) and expressed as N-terminal His6-tagged fusion protein. The hIKK2 cDNA was amplified using a reverse oligonucleotide primer which incorporated the peptide sequence for a FLAG-epitope tag at the C-terminus of the IKK2 coding region ([…]). The hIKK2:FLAG cDNA was subcloned into the baculovirus vector pFastBac. The rhIKK2 ([…]) mutant was constructed in the same vector used for wild type rhIKK2 using a QuikChange™ mutagenesis kit (Stratagene). Viral stocks of each construct were used to infect insect cells grown in 40L suspension culture. […] Cell lysates were stored at −80° C. until purification of the recombinant proteins was undertaken as described below.
Isolation of rhIKK1/IKK2 Heterodimer
The heterodimer enzyme was produced by coinfection in a baculovirus system (FLAG IKK2/IKK1 His; MOI=0.1 and I=72 hrs). Infected cells were centrifuged and the cell pellet (10.0 g) was suspended in 50 ml of buffer A. The protein suspension was microfluidized and centrifuged at 100,000×g for 45 min. Imidazole was added to the supernatant to a final concentration of 10 mM. The protein was allowed to bind 25 ml of Ni-NTA resin by mixing for 2 hrs. The protein-resin slurry was poured into a 25 ml column and washed with 250 ml of buffer A containing 10 mM imidazole followed by 125 ml of buffer A containing 50 mM imidazole. Buffer A, containing 300 mM imidazole, was then used to elute the protein. A 75 ml pool was collected and NP-40 was added to a final concentration of 0.1%. […] The protein-resin slurry was then centrifuged for 5 min at 2,000 rpm. The supernatant was collected and the resin re-suspended in 100 ml of buffer C containing 0.1% NP-40. The resin was washed with 375 ml of buffer C containing 0.1% NP-40. The protein-resin was poured into a 25 ml column and the enzyme eluted using buffer B containing FLAG peptide. Enzyme fractions (100 ml) were collected and concentrated to 20 ml using an Amicon membrane with molecular weight cut-off of 30 kDa. Bovine serum albumin was added to the concentrated enzyme to final concentration of 0.1%. The enzyme was then aliquoted and stored at −80° C.
IKK Heterodimer Resin Enzyme Assay
Resin was allowed to settle for one hour and 50 ul of supernatant was removed to a Micolite-2 flat bottom plate (Dynex). 150 μl of scintillation fluid (Microscint 40) (Packard) was added to each well. Incorporation of [γ-^33P] ATP was measured using a Top-Count NXT (Packard).

Row | IC50 [nM] | Molecule
1 | 1000 to 10000 | COc1ccccc1C(=O)Nc1ccc2ccc3c(C(N)=O)nn(-c4ccc(S(N)(=O)=O)cc4)c3c2c1 [Example 25, 1-[4-(aminosulfonyl)phenyl]-8-[(2-methoxybenzoyl)amino]-1H-benzo[g]indazole-3-carboxamide]

same assay, conditions: Table 1; values given as bins; read-out: HetD (IKK heterodimer assay values expressed as IC50)

Row | IC50 [nM] | Molecule
2 | 1000 to 10000 | NC(=O)c1nn(-c2ccc(S(N)(=O)=O)cc2)c2c1ccc1ccc(NC(=O)c3cccc(C(F)(F)F)c3)cc12 [Example 10, 1-[4-(aminosulfonyl)phenyl]-8-{[3-(trifluoromethyl)benzoyl]amino}-1H-benzo[g]indazole-3-carboxamide]
3 | 1000 to 10000 | NC(=O)c1nn(-c2ccc(S(N)(=O)=O)cc2)c2c1ccc1ccc(NS(=O)(=O)c3cccc(Cl)c3)cc12 [Example 16, 1-[4-(aminosulfonyl)phenyl]-8-{[(3-chlorophenyl)sulfonyl]amino}-1H-benzo[g]indazole-3-carboxamide]
4 | ≤ 1000 | C=CCN(CC=C)S(=O)(=O)c1ccc(-n2nc(C(N)=O)c3ccc4ccc(N)cc4c32)cc1 [Example 7, 8-amino-1-{4-[(diallylamino)sulfonyl]phenyl}-1H-benzo[g]indazole-3-carboxamide]
5 | ≤ 1000 | NC(=O)c1nn(-c2ccc(S(N)(=O)=O)cc2)c2c1ccc1ccc(NC(=O)c3cccnc3Cl)cc12 [Example 32, 1-[4-(aminosulfonyl)phenyl]-8-{[(2-chloropyridin-3-yl)carbonyl]amino}-1H-benzo[g]indazole-3-carboxamide]
6 | ≤ 1000 | NC(=O)c1nn(-c2ccc(S(N)(=O)=O)cc2)c2c1ccc1ccc(NC(=O)c3ccncc3)cc12 [Example 34, 1-[4-(aminosulfonyl)phenyl]-8-(isonicotinoylamino)-1H-benzo[g]indazole-3-carboxamide]
7 | ≤ 1000 | N#Cc1cccc(C(=O)Nc2ccc3ccc4c(C(N)=O)nn(-c5ccc(S(N)(=O)=O)cc5)c4c3c2)c1 [Example 17, 1-[4-(aminosulfonyl)phenyl]-8-[(3-cyanobenzoyl)amino]-1H-benzo[g]indazole-3-carboxamide]
8 | ≤ 1000 | NC(=O)c1nn(-c2ccc(S(N)(=O)=O)cc2)c2c1ccc1ccc(NC(=O)c3cccnc3)cc12 [Example 13, 1-[4-(aminosulfonyl)phenyl]-8-[(pyridin-3-ylcarbonyl)amino]-1H-benzo[g]indazole-3-carboxamide]
9 | ≤ 1000 | Cc1cccc(C(=O)Nc2ccc3ccc4c(C(N)=O)nn(-c5ccc(S(N)(=O)=O)cc5)c4c3c2)c1 [Example 11, 1-[4-(aminosulfonyl)phenyl]-8-[(3-methylbenzoyl)amino]-1H-benzo[g]indazole-3-carboxamide]
10 | ≤ 1000 | CC(=O)Nc1ccc2ccc3c(C(N)=O)nn(-c4ccc(S(N)(=O)=O)cc4)c3c2c1 [Example 20, 8-(acetylamino)-1-[4-(aminosulfonyl)phenyl]-1H-benzo[g]indazole-3-carboxamide]
11 | 10000 to 100000 | NC(=O)c1nn(-c2ccc(S(N)(=O)=O)cc2)c2c1ccc1ccc(NS(=O)(=O)c3cccc(C(F)(F)F)c3)cc12 [Example 19, 1-[4-(aminosulfonyl)phenyl]-8-({[3-(trifluoromethyl)phenyl]sulfonyl}amino)-1H-benzo[g]indazole-3-carboxamide]
12 | 1000 to 10000 | NC(=O)c1nn(-c2ccc(S(N)(=O)=O)cc2)c2c1ccc1ccc(NS(=O)(=O)c3ccccc3Cl)cc12 [Example 33, 1-[4-(aminosulfonyl)phenyl]-8-{[(2-chlorophenyl)sufonyl]amino}-1H-benzo[g]indazole-3-carboxamide]
13 | ≤ 1000 | NC(=O)c1nn(-c2ccc(S(N)(=O)=O)cc2)c2c1ccc1ccc(NC(=O)c3ccccc3F)cc12 [Example 31, 1-[4-(aminosulfonyl)phenyl]-8-[(2-fluorobenzoyl)amino]-1H-benzo[g]indazole-3-carboxamide]
14 | ≤ 1000 | Cc1ccccc1C(=O)Nc1ccc2ccc3c(C(N)=O)nn(-c4ccc(S(N)(=O)=O)cc4)c3c2c1 [Example 27, 1-[4-(aminosulfonyl)phenyl]-8-[(2-methylbenzoyl)amino]-1H-benzo[g]indazole-3-carboxamide]
15 | ≤ 1000 | NC(=O)c1nn(-c2ccc(S(N)(=O)=O)cc2)c2c1ccc1ccc(NC(=O)c3cccc(Cl)c3)cc12 [Example 9, 1-[4-(aminosulfonyl)phenyl]-8-[(3-chlorobenzoyl)amino]-1H-benzo[g]indazole-3-carboxamide]
16 | 10000 to 100000 | Cc1cccc(S(=O)(=O)Nc2ccc3ccc4c(C(N)=O)nn(-c5ccc(S(N)(=O)=O)cc5)c4c3c2)c1 [Example 18, 1-[4-(aminosulfonyl)phenyl]-8-{[(3-methylphenyl)sulfonyl]amino}-1H-benzo[g]indazole-3-carboxamide]
17 | ≤ 1000 | NC(=O)c1nn(-c2ccc(S(N)(=O)=O)cc2)c2c1ccc1ccc(NC(=O)c3ccccc3C(F)(F)F)cc12 [Example 26, 1-[4-(aminosulfonyl)phenyl]-8-{[2-(trifluoromethyl)benzoyl]amino}-1H-benzo[g]indazole-3-carboxamide]
18 | ≤ 1000 | NC(=O)c1nn(-c2ccc(S(N)(=O)=O)cc2)c2c1ccc1ccc(NC(=O)c3cccc(Cl)c3Cl)cc12 [Example 30, 1-[4-(aminosulfonyl)phenyl]-8-[(2,3-dichlorobenzoyl)amino]-1H-benzo[g]indazole-3-carboxamide]
19 | ≤ 1000 | NC(=O)c1nn(-c2ccc(S(N)(=O)=O)cc2)c2c1ccc1ccc(NC(=O)c3c(Cl)cccc3Cl)cc12 [Example 28, 1-[4-(aminosulfonyl)phenyl]-8-[(2,6-dichlorobenzoyl)amino]-1H-benzo[g]indazole-3-carboxamide]
20 | ≤ 1000 | CS(=O)(=O)Nc1ccc2ccc3c(C(N)=O)nn(-c4ccc(S(N)(=O)=O)cc4)c3c2c1 [Example 21, 1-[4-(aminosulfonyl)phenyl]-8-[(methylsulfonyl)amino]-1H-benzo[g]indazole-3-carboxamide]

Row | Molecule | IC50 [nM]
21 | 8-amino-1-{4-[(aminothio)peroxy]phenyl}-1H-benzo[g]indazole-3-carboxamide [Example 4c] | ≤ 1000
